Laboratory results taken from US20040175691A1, “Use of the KCNQ2 and KCNQ3 genes for the discovery of agents useful in the treatment of neurological disorders” (priority 1998, published 2004).

Legend:
KCNQ2 = KCNQ2 (Homo sapiens, UniProt O43526, DEL417-446); assay: Blockade of KCNQ2 channels expressed in Xenopus oocytes; type: cell-based; parameters: Full-length KCNQ2 cDNAs were amplified from adult human brain cDNA; expressed in transfected cells; host or cells: Xenopus oocytes injected with cRNA; details: oocytes; mean±s.e.m.
Description: (§1) Method: Full-length KCNQ2 cDNAs were amplified from adult human brain cDNA using the following primers ([…], […]) with the Expand Fidelity enzyme mixture (Boehringer Mannheim, Indianapolis). […] This region is also alternatively spliced in the KCNQ2 cDNA clone described by Biervert et al. (1998). Preparation, injection of cRNA and recording from oocytes was performed at room temperature as described previously (Dixon et al. 1996). The standard extracellular recording solution contained: 82 mM NaCl, 2 mM KCl, 1.8 mM CaCl2, 1 mM MgCl2, and 5 mM Na-HEPES (pH 7.6). Data collection and analysis were performed using pClamp software (Axon Instruments, Foster City, Calif.).
IC50 values are all expressed in μM, mean±s.e.m.

eag1 = target: T1, eag1 (Rattus norvegicus, UniProt Q63472); assay: Blockade of cloned eag1 channel in oocytes; type: cell-based; details: mean±s.e.m., blockade incomplete
T1 construct: expressed in transfected cells; host or cells: oocytes (Xenopus)
T1 sequence (Q63472 1-962): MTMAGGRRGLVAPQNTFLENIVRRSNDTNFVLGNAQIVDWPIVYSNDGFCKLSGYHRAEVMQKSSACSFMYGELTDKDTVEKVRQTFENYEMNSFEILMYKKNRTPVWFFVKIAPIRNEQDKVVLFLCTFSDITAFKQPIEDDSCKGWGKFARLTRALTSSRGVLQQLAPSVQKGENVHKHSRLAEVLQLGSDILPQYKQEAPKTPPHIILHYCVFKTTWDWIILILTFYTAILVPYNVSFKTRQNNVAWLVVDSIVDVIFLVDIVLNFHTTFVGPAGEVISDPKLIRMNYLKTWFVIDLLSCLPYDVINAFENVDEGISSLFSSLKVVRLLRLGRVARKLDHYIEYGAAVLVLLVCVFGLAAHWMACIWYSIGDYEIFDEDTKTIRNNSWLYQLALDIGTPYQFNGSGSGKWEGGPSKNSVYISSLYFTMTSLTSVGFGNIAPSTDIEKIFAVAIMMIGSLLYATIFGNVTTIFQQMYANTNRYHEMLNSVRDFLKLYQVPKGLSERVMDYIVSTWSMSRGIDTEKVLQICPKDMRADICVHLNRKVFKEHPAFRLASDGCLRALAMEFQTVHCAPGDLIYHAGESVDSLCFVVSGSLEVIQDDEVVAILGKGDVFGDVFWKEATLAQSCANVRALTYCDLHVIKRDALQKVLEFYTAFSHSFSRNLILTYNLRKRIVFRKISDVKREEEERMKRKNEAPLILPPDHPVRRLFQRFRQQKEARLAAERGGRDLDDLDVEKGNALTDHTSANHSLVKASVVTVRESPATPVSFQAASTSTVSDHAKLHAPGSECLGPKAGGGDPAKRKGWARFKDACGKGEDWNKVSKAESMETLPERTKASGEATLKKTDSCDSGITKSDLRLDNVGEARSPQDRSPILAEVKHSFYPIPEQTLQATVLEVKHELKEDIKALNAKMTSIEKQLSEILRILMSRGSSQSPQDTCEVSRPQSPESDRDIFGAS

Kv1.2 = target: T2, Kv1.2 (Homo sapiens, UniProt P16389); assay: Blockade of cloned Kv1.2 channel in oocytes; type: cell-based; details: mean±s.e.m.
T2 construct: expressed in transfected cells; host or cells: oocytes (Xenopus)

KCNQ2 + KCNQ3 = target: T3, KCNQ2 + KCNQ3 (UniProt O43526+O88944, DEL417-446); assay: Blockade of KCNQ2+KCNQ3 channels expressed in Xenopus oocytes; type: cell-based, human KCNQ2, rat KCNQ3; details: mean±s.e.m.
T3 construct: Full-length KCNQ2 cDNAs were amplified from adult human brain cDNA; Multiple full-length cDNA clones were amplified in independent PCR reactions from rat SCG cDNA; expressed in transfected cells; host or cells: Xenopus oocytes injected with cRNA
Description: as §1
Holding potential was −60 mV and the cell was repetitively depolarized to −30 mV for 1 minute to reach steady-state blockade. Tail currents were recorded at −50 mV.
IC50 values are all expressed in μM, mean±s.e.m. In cases where the IC50 values were greater than 100 μM the exact value is not reported due to limited solubility in the drug.

elk1 = target: T4, elk1 (Rattus norvegicus, UniProt Q9QWS8); assay: Blockade of cloned elk1 channel in oocytes; type: cell-based
T4 construct: expressed in transfected cells; host or cells: oocytes (Xenopus)
T4 sequence (Q9QWS8 1-1102): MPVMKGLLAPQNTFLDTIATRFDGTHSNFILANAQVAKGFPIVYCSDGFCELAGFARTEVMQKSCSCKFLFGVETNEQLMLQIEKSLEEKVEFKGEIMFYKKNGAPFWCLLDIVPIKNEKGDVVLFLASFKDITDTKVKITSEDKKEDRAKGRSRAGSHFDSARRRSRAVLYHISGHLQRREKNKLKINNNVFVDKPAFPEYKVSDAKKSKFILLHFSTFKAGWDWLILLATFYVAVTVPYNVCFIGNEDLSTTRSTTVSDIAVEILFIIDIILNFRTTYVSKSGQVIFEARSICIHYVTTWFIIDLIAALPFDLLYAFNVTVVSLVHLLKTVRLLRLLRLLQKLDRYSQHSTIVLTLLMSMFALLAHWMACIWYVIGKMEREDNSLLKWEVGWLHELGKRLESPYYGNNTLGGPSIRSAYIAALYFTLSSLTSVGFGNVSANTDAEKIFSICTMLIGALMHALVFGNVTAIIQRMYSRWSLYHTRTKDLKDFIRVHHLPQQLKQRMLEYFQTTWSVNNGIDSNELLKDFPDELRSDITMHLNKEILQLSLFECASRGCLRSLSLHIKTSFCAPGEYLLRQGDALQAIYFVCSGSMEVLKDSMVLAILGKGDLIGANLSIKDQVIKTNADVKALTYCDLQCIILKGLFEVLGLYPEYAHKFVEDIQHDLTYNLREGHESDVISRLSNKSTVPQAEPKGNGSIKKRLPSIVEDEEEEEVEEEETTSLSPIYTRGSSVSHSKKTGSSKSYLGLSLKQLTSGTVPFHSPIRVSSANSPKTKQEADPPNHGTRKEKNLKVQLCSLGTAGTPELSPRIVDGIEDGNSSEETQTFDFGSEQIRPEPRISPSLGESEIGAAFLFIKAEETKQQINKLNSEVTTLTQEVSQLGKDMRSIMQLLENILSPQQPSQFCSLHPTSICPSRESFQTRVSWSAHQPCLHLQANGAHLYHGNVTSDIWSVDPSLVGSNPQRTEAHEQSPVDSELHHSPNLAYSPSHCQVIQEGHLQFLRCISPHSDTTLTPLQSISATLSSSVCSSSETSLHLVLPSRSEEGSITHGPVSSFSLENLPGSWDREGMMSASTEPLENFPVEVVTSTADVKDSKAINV

T2 sequence (P16389 whole entry): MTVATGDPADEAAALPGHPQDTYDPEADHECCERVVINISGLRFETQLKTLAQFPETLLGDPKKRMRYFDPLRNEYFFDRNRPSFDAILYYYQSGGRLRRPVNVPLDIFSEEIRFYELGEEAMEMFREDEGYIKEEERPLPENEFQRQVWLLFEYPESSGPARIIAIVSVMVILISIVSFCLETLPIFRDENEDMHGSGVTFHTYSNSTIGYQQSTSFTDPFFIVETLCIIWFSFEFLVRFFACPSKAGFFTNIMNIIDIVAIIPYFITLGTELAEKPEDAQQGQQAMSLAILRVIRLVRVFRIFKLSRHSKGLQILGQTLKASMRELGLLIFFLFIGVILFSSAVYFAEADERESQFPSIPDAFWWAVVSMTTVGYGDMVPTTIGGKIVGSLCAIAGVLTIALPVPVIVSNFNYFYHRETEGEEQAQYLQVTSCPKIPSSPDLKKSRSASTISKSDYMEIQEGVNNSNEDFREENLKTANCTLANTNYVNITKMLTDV

Question: Which results are given for `O=C1c2ccccc2C(Cc2ccncc2)(Cc2ccncc2)c2ccccc21` [XE991, 10,10-bis(4-pyridinylmethyl)-9(10H)-anthracenone]?
Answer: IC50 (KCNQ2): 0.71 ± 0.07 µM; IC50 (eag1): 49 ± 6 µM; IC50 (Kv1.2): > 100 µM; IC50 (KCNQ2 + KCNQ3): 0.6 ± 0.1 µM; IC50 (elk1; oocytes): > 100 µM

Question: How did the IC50 (KCNQ2) turn out when `O=C1N(c2ccccc2)c2ccccc2C1(Cc1ccncc1)Cc1ccncc1` [Linopirdine, 3,3-bis(4-pyridinylmethyl)-1-phenylindolin-2-one] was run?
Answer: 4.8 ± 0.6 µM

Question: And the IC50 (eag1)?
Answer: 31 ± 3 µM

Question: What about the IC50 (Kv1.2) of the same compound?
Answer: 68 ± 6 µM

Question: What about the IC50 (KCNQ2 + KCNQ3) of the same compound?
Answer: 4 ± 0.5 µM

Question: And the IC50 (elk1; at +30 mV)?
Answer: 144 µM

Question: What about the IC50 (elk1; at −20 mV) of the same compound?
Answer: 26 µM

Question: What about the IC50 (elk1; step to −10 mV, voltage dependent) of the same compound?
Answer: 37 ± 4 µM
